Laboratory results taken from ChEMBL document CHEMBL5247677, “N-Aryl Indoles as a Novel Class of Potent NaV1.7 Inhibitors” (ACS Med Chem Lett, 2023).
Converted amounts (≈) assume the structure as drawn. The source made the active and inactive calls. No cut-off for these calls is given here.

How the values were obtained:
[1] = biological target: Sodium channel protein type 9 subunit alpha/beta-1/beta-2 (Homo sapiens, UniProt Q15858); assay: Inhibition of human Nav1.7/beta1/2 transfected in HEK293-A cells assessed as inhibition of channel current incubated for 5.5 mins by high-throughput electrophysiology system analysis; assay type: cell-based
[2] = biological target: Sodium channel protein type 9 subunit alpha/beta-1/beta-2 (Mus musculus, UniProt Q62205); assay: Inhibition of mouse Nav1.7/beta1/2 transfected in HEK293-A cells assessed as inhibition of channel current incubated for 5.5 mins by high-throughput electrophysiology system analysis; assay type: cell-based
Chain of Sodium channel protein type 9 subunit alpha/beta-1/beta-2 (Mus musculus, UniProt Q62205) (Q62205 whole entry): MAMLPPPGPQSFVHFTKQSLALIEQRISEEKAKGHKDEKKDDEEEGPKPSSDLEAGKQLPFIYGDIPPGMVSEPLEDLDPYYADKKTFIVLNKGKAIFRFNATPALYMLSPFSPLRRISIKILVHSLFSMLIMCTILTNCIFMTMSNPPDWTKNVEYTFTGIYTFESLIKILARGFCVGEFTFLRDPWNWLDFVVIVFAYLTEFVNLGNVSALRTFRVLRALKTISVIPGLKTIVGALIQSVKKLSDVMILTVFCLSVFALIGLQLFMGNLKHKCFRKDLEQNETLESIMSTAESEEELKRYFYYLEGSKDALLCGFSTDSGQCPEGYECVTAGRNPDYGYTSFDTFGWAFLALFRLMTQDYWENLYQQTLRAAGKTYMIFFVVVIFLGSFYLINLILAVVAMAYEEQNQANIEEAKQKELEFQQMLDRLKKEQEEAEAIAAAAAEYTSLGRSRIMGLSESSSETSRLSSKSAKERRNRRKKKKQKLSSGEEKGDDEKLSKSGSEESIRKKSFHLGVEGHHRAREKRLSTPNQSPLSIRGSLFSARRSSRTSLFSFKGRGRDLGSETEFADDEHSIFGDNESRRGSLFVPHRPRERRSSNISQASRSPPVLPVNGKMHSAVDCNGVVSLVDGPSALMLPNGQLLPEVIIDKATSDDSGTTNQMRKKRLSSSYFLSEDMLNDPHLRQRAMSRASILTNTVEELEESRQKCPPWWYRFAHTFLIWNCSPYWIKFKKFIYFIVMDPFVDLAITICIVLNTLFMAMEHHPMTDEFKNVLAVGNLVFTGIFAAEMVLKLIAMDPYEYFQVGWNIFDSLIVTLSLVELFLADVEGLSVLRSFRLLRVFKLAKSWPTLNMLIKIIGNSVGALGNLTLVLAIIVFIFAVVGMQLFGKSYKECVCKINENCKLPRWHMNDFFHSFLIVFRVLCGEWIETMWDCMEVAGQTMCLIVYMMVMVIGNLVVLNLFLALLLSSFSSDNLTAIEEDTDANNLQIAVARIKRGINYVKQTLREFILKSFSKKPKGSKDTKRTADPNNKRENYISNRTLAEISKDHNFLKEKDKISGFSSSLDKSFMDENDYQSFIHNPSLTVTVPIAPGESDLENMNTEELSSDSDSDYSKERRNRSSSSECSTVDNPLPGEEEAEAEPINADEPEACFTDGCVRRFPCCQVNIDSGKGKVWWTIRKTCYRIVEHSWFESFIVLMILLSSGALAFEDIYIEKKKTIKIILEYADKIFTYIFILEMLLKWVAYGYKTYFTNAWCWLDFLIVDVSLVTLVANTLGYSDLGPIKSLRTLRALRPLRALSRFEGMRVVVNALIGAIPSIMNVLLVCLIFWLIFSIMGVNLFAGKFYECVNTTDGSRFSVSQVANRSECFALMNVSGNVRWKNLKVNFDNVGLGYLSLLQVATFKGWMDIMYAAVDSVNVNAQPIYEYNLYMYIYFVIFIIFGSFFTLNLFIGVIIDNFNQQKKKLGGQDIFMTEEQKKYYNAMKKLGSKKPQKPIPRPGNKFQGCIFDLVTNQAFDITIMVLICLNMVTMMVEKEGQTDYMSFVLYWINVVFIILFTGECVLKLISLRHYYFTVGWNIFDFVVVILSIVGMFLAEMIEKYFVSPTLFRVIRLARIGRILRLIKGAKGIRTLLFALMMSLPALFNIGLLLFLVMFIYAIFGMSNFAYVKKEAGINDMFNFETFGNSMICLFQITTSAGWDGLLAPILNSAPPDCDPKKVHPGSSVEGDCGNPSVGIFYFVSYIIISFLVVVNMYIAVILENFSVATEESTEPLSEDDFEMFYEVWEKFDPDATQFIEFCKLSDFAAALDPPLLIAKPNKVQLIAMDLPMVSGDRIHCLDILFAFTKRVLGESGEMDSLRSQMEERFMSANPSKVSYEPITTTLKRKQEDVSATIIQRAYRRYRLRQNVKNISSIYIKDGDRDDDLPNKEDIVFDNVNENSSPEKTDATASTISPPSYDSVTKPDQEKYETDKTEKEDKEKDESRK
Chain of Sodium channel protein type 9 subunit alpha/beta-1/beta-2 (Mus musculus, UniProt Q62205) (P97952 whole entry, further chain): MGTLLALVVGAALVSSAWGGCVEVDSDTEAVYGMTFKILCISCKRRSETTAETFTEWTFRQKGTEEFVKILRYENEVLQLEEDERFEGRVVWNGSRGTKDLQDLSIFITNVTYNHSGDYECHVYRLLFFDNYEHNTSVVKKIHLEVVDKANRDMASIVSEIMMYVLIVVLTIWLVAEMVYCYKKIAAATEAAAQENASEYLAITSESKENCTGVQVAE
Chain of Sodium channel protein type 9 subunit alpha/beta-1/beta-2 (Mus musculus, UniProt Q62205) (Q56A07 whole entry, further chain): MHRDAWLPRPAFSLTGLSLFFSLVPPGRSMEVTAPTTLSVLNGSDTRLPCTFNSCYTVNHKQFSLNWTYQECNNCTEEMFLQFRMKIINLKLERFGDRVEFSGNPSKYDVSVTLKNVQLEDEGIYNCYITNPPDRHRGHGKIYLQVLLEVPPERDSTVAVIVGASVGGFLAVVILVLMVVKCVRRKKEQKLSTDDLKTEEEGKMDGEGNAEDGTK

[3] = biological target: Sodium channel protein type 1 subunit alpha/beta-1/beta-2 (Homo sapiens, UniProt P35498); assay: Inhibition of human Nav1.1/beta1/2 transfected in HEK293-A cells assessed as inhibition of channel current incubated for 5.5 mins by high-throughput electrophysiology system analysis; assay type: toxicity, cell-based
[4] = biological target: Sodium channel protein type 5 subunit alpha/beta-1/beta-2 (Homo sapiens, UniProt Q14524); assay: Inhibition of human Nav1.5/beta1/2 transfected in HEK293-A cells assessed as inhibition of channel current incubated for 5.5 mins by high-throughput electrophysiology system analysis; assay type: toxicity, cell-based
Chain of Sodium channel protein type 5 subunit alpha/beta-1/beta-2 (Q14524 whole entry): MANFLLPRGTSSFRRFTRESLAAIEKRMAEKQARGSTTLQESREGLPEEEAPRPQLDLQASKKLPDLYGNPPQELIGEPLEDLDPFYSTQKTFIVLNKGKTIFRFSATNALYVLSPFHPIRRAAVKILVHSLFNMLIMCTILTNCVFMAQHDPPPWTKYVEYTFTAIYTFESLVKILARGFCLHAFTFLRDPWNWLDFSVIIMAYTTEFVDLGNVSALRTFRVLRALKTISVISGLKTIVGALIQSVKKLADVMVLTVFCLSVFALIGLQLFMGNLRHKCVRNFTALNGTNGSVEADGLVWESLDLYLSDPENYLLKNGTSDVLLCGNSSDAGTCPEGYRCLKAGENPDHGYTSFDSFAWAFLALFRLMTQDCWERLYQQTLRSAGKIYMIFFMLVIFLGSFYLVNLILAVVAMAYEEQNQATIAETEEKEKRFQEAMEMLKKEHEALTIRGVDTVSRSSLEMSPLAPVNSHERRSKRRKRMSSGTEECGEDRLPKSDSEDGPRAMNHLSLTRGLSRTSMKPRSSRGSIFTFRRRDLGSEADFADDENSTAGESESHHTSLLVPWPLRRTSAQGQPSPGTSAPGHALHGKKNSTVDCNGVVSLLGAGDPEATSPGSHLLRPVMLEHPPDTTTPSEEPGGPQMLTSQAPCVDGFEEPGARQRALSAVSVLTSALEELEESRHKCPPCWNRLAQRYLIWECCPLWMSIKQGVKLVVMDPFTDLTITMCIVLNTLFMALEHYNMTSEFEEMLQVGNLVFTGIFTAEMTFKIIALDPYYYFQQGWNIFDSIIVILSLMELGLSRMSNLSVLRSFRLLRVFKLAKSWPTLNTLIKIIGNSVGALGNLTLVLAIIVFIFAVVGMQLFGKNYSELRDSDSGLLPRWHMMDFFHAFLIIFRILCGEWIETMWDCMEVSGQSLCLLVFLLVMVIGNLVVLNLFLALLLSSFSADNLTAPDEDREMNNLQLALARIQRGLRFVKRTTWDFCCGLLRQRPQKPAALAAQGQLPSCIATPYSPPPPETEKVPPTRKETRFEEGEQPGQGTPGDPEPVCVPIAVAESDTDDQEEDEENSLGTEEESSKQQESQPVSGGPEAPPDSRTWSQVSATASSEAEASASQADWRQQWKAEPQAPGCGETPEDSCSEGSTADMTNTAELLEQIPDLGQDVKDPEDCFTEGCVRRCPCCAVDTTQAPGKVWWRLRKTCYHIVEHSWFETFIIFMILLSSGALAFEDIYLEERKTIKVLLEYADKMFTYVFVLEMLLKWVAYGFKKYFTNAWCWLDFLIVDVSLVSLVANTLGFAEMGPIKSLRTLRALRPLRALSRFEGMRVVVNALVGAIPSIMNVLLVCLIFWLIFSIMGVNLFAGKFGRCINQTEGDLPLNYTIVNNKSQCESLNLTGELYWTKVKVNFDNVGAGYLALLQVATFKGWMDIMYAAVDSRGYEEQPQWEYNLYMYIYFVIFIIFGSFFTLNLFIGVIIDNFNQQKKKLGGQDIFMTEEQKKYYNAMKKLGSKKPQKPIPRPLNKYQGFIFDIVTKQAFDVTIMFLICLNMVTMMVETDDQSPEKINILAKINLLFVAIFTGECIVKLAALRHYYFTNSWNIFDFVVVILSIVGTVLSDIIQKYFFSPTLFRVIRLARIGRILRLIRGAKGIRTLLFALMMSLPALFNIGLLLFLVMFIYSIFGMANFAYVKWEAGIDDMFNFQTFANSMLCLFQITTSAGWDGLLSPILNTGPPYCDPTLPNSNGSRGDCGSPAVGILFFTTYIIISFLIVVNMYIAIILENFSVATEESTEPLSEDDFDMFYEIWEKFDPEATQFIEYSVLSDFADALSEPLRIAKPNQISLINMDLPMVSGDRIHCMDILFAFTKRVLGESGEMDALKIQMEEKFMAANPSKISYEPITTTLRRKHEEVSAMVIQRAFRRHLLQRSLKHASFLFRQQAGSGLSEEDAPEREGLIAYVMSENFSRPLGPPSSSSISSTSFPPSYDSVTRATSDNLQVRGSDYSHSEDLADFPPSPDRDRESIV
Chain of Sodium channel protein type 5 subunit alpha/beta-1/beta-2 (O60939 whole entry, further chain): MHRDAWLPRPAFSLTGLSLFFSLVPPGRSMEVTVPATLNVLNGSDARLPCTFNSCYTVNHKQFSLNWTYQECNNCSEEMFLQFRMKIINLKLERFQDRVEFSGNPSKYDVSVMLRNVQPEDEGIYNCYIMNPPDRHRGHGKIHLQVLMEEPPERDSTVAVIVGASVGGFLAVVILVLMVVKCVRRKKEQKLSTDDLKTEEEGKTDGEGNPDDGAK
Chain of Sodium channel protein type 5 subunit alpha/beta-1/beta-2 (Q07699 whole entry, further chain): as the sequence (P97952 whole entry, further chain) above, with T3R, W18C, D27E, T50N, D130E, L144I, V179I, A191T counted along it

[5] = Selectivity ratio of IC50 for human Nav1.1/beta1/2 transfected in HEK293-A cells to IC50 for human Nav1.7/beta1/2 transfected in HEK293-A cells
[6] = Selectivity ratio of IC50 for human Nav1.5/beta1/2 transfected in HEK293-A cells to IC50 for human Nav1.7/beta1/2 transfected in HEK293-A cells
hERG (KCNH2) = hERG (KCNH2) (Homo sapiens, UniProt Q12809); assay: Inhibition of hERG at 100 uM; assay type: toxicity
[7] = 1-Octanol/PBS buffer distribution coefficient, log D of the compound at pH 7.4 by HPLC/LC-MS analysis; assay type: physicochemical
[8] = Aqueous thermodynamic solubility of the compound at pH 6.8 measured after 4 hrs by HPLC-UV analysis; assay type: physicochemical; conditions: read-out: Therm_solubility
[9] = Unbound fraction in mouse plasma; assay type: ADME, cell-free
Mus musculus [10] = assay: Analgesic activity against PSL-induced neuropathic pain mouse model assessed as reversal of thermal hyperalgesia at 1 mg/kg, po measured after 30 mins by plantar test; assay type: functional
Mus musculus [11] = assay: Analgesic activity against PSL-induced neuropathic pain mouse model assessed as reversal of thermal hyperalgesia at 1 mg/kg, po measured after 60 mins by plantar test; assay type: functional, organism-based
Mus musculus [12] = assay: Analgesic activity against PSL-induced neuropathic pain mouse model assessed as reversal of thermal hyperalgesia at 1 mg/kg, po measured after 120 mins by plantar test; assay type: functional, organism-based
[13] = Cmax in ddY mouse at 1 mg/kg, po by LC-MS/MS analysis; assay type: ADME, organism-based; set-up: dose 1 mg/kg, route po; conditions: in vivo
[14] = Tmax in ddY mouse at 1 mg/kg, po by LC-MS/MS analysis; assay type: ADME, organism-based; conditions: in vivo
[15] = AUC(0 to 24 hrs) in ddY mouse at 1 mg/kg, po by LC-MS/MS analysis; assay type: ADME, organism-based; set-up: dose 1 mg/kg, route po; conditions: in vivo
[16] = Half life in ddY mouse at 1 mg/kg, po by LC-MS/MS analysis; assay type: ADME, organism-based; conditions: in vivo
[17] = Total body clearance in ddY mouse at 1 mg/kg, iv by LC-MS/MS analysis; assay type: ADME, organism-based; conditions: in vivo
[18] = Volume of distribution at steady state in ddY mouse at 1 mg/kg, iv by LC-MS/MS analysis; assay type: ADME, organism-based; conditions: in vivo, read-out: Vdss
[19] = Bioavailability in ddY mouse at 1 mg/kg, iv by LC-MS/MS analysis; assay type: ADME, organism-based; conditions: in vivo
[20] = Ratio of fCmax in ddY mouse plasma at 1 mg/kg, po to IC50 for inhibition of mouse Nav1.7/beta1/2 transfected in HEK293-A cells
Mus musculus [21] = assay: Analgesic activity against PSL-induced neuropathic pain mouse model assessed as reversal of thermal hyperalgesia at 1 mg/kg, po measured after 240 mins by plantar test; assay type: functional, organism-based
Cytochrome P450 1A2 = biological target: T1, Cytochrome P450 1A2 (Homo sapiens, UniProt P05177); assay: Inhibition of CYP1A2 (unknown origin) at 10 uM; assay type: ADME
T1 sequence (P05177 whole entry): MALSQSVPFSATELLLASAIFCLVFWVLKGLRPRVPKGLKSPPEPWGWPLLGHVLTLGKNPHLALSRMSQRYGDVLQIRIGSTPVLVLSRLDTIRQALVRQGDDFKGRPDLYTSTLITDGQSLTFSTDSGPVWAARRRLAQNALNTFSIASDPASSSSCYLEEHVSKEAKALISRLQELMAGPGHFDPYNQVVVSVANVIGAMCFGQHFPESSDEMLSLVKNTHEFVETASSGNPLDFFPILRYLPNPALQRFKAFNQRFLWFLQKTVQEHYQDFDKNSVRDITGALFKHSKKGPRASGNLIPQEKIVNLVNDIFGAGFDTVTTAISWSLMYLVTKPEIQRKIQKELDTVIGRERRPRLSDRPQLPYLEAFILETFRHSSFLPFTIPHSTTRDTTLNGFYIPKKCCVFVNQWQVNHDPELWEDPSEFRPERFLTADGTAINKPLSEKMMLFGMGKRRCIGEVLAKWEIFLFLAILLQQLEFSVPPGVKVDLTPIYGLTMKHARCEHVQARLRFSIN

Cytochrome P450 2C9 = Cytochrome P450 2C9 (Homo sapiens, UniProt P11712); assay: Inhibition of CYP2C9 (unknown origin) at 10 uM; assay type: ADME
Cytochrome P450 2D6 = Cytochrome P450 2D6 (Homo sapiens, UniProt P10635); assay: Inhibition of CYP2D6 (unknown origin) at 10 uM; assay type: ADME
Cytochrome P450 3A4 = Cytochrome P450 3A4 (Homo sapiens, UniProt P08684); assay: Inhibition of CYP3A4 (unknown origin) at 10 uM; assay type: ADME
[22] = Glutathione reactivity in human liver microsome assessed as GSH adduct formation; assay type: ADME; conditions: microsomes

IC50 [1]: 0.015 µM | IC50 [2]: 0.061 µM | logD [7]: 1 | solubility thermodynamic at 4 h [8]: 130 µM (≈ 55 µg/mL) | fraction unbound [9]: 0.005 | Cmax [13]: 2300 nM | Tmax [14]: 3.3 h | AUC(0-t) [15]: 41.5 µM·h | half-life [16]: 17 h | clearance [17]: 1.01 mL/min/kg | Vd [18]: 0.81 L/kg | bioavailability [19]: 117% | inhibition (INH) (Cytochrome P450 1A2): Not Active | inhibition (INH) (Cytochrome P450 2C9): Not Active | inhibition (INH) (Cytochrome P450 2D6): Not Active | inhibition (INH) (Cytochrome P450 3A4): Not Active | Activity [22]: Not Active
Structure (SMILES): Cc1cn(-c2cncc(C(F)(F)F)c2)c2ccc(C(=O)NS(=O)(=O)C3CC3)cc12
IC50 [3]: 6.6 µM | IC50 [4]: 14 µM | Ratio IC50 [5]: 440 | Ratio IC50 [6]: 930 | inhibition at 100 µM (hERG (KCNH2)): 6.9% | Activity (Mus musculus [10]): inactive | Activity (Mus musculus [11]): Active | Activity (Mus musculus [12]): Active | Ratio [20]: 0.2 | Activity (Mus musculus [21]): inactive
